# Values of other authors, collected in patent US7314882B2, “Bicyclic heterocycles as cannabinoid receptor modulators” (Bristol-Myers Squibb Company, priority 2005, dated 2008).
# Tested on: body weight
# Conditions: 16 week trial period
smiles,measurement,value
Cc1c(C(=O)NN2CCCCC2)nn(-c2ccc(Cl)cc2Cl)c1-c1ccc(Cl)cc1 [SR-141716],body weight in human subjects,dose-dependently reduced body weight
